Where two headings read alike, the source gives them in different places. Each block holds one compound with its values, some of them ahead of it.
Assays:
Type in all cases: cell-based, rat
[1] = tested on: IgE-mediated RBL-2H3 mast cell activation; test: Cell-substrate impedance assay: pharmacological inhibition of antigen-mediated mast cell activation; settings: at peak response
Description: RBL-2H3 mast cells were sensitized with 100 ng/mL anti-DNP-IgE and then incubated with the indicated concentrations of the Bisindolylmaleimide 1 hour prior to addition of 100 ng/mL DNP-BSA. The impedance value indicated as Cell Index was monitored using a cell-substrate impedance monitoring system of the present invention.
The real-time cell-substrate impedance monitoring system comprises three components, an impedance analyzer, a device station, and one or more 16X microtiter devices. Microelectrode sensor arrays were fabricated on glass slides using lithographical microfabrication methods and the electrode-containing slides were assembled to plastic trays to form 16 electrode-containing wells. The device station of the system receives the 16X microtiter devices and is capable of electronically switching any one of the wells to the sensor (impedance) analyzer for impedance measurement. In operation, the devices with cells cultured in the wells are placed into a device station that is located inside an incubator. Electrical cables connect the device station to the sensor (impedance) analyzer. Under the impedance monitoring system’s software control, the impedance analyzer can automatically select wells to be measured and continuously conduct impedance measurements. The impedance data from the analyzer is transferred to a computer, analyzed and processed by integrated software.
To quantify cell status based on the measured cell-electrode impedance, a parameter termed Cell Index is derived, according to
where Rb (f) and Rcell (f) are the frequency dependent electrode resistances (a component of impedance) without cells or with cell present, respectively. N is the number of the frequency points at which the impedance is measured. Thus, Cell Index is a quantitative measure of the status of the cells in an electrode-containing well. Under the same physiological conditions, more cells attached on to the electrodes leads to larger Rcell (f) value, leading to a larger value for Cell Index. […]
20,000 RBL-2H3 cells were seeded per well of a 16X microtiter device and monitored by the impedance measuring system. […] The cell-electrode impedance was continuously measured and the corresponding, time dependent Cell-Index values were derived and recorded.
RBL-2H3 cells were seeded in a 16X microtiter plate device and pre-stimulated with anti-DNP-IgE were incubated for 1 hour with the indicated doses of the PKC-specific inhibitor Bisindolylmaleimide and subsequently treated with 100 ng/mL DNP-BSA (FIG. 17). The dose-dependent inhibition of RBL-2H3 mast cell activation by Bisindolylmaleimide can be monitored on the cell-substrate monitoring system in real-time. […]

RBL-2H3 mast cells [2] = test: Impedance monitoring of RBL-2H3 mast cell response to IgE and antigen; settings: anti-DNP IgE sensitized, 100 ng/mL DNP-BSA (FIG. 14)
Description: FIG. 13 is a plot of cell index recording indicating mast cell responses to IgE in the presence or absence of antigen. 20,000 RBL-2H3 mast cells were seeded in each well of a 16× device. Cells were allowed to adhere and grow for 22 hours while being recorded. At 22 hours the cells were treated with either 1 microgram/mL non-specific mouse IgG or 1 microgram/mL anti-DNP mouse IgE. The electronic impedance response of the cells were continued to be recorded for an additional 20 hours after which the media in the wells were aspirated and replaced with fresh serum free media. The cells were allowed to recover for 30 minutes and then treated with the 1 microgram/mL of the antigen, DNP-BSA. The electronic impedance response of the cells was measured for an additional 3 hours.
Approximately 14 hours after seeding the cells were incubated with 100 ng/mL anti-DNP IgE followed by application of 100 ng/mL DNP-BSA 24 hours later. Impedance measurements (indicated as Cell Index) were performed at 5 minute intervals post DNP-BSA application.
FIGS. 16A-B show IgE alone-mediated increase in mast cell-electrode impedance response and its effect on antigen-mediated activation step. (A) RBL-2H3 cells seeded on microelectronic sensor arrays were left untreated or treated with indicated concentration of anti-DNP IgE. The impedance value indicated as Cell Index was continuously monitored and recorded using a cell-substrate impedance monitoring system. […] The impedance value indicated as Cell Index was continuously monitored using the system. […]
RBL-2H3 cells were seeded in the 16X device chamber (depicted in FIG. 2) at 20,000 cells/well and the attachment and growth of the cells in the 37° C. tissue culture incubator were monitored in real-time using the cell-substrate monitoring system. […]
20,000 RBL-2H3 cells were seeded per well of a 16X microtiter device and monitored by the impedance measuring system. […] The cell-electrode impedance was continuously measured and the corresponding, time dependent Cell-Index values were derived and recorded. […]

RBL-2H3 mast cells [3] = test: Fluorescence microscopy of actin cytoskeleton (rhodamine-phalloidin); settings: DNP-BSA cross-linking
Description: FIGS. 15A-B show correlation between cell-electrode impedance response of RBL-2H3 mast cells and cell morphological dynamics and mediator release. (A) RBL-2H3 mast cells were sensitized with 100 ng/mL IgE or treated with a control IgG antibody and subsequently activated with DNP-BSA. The cells were fixed with paraformaldehyde at the indicated time points, permeablized and stained with rhodamine-phalloidin. The cells were visualized and photographed with a Nikon E-400 immunoflourescence microscope equipped with a CCD camera. (B) RBL-2H3 cells were sensitized with IgE, activated by the addition of DNP-BSA.
RBL-2H3 cells were seeded in 16 well Lab-Tec chamber slides and allowed to attach and spread for 6 hours. The cells were stimulated with anti-DNP IgE at a final concentration of 100 ng/mL or a non-specific mouse IgG at 100 ng/mL and then 16 hours later, the media was aspirated, replaced with fresh media and treated with 100 ng/mL DNP-BSA for the indicated time and then fixed with 4 % parafarmaldehyde. The cells were washed 3X with PBS, permeablized in PBS containing 0.2% TX-100 and blocked in PBS containing 0.5 % BSA. The cells were then stained with rhodamine-phalloidin for 30 minutes, washed 3X with PBS and visualized and imaged using the tritc filter on a Nikon E400 epi-fluorescence microscope and Nikon ACT software. […]

[4] = Rattus norvegicus, RBL-2H3, mast cell activation by impedance, Bisindolylmaleimide N=3, SU6656 N=5, U73122 N=5, Piceatannol N=1, read-out: IC50±SD

IC50 [1, 4]: 1 µM
Compound: Oc1cc(O)cc(/C=C/c2ccc(O)c(O)c2)c1 [Piceatannol]

IC50 [1, 4]: 5.8 ± 3.5 µM
Compound: CN(C)S(=O)(=O)c1ccc2c(c1)/C(=C/c1cc3c([nH]1)CCCC3)C(=O)N2 [SU6656]

IC50 ([1]; antigen-mediated RBL-2H3 activation, read-out: IC-50 value): ~1 µM
IC50 ([1]; mast cell activation by impedance, Bisindolylmaleimide N=3, SU6656 N=5, U73122 N=5, Piceatannol N=1, read-out: IC50±SD): 0.93 ± 0.6 µM
Compound: COc1ccc2c(c1)CC[C@@H]1[C@@H]2CC[C@]2(C)[C@@H](NCCCCCCN3C(=O)C=CC3=O)CC[C@@H]12 [U73122]

Compound: DNP-BSA: multi-valent antigen DNP-BSA
time of return to baseline (RBL-2H3 mast cells [2]): approximately 2.5 hours
time to detectable impedance increase (RBL-2H3 mast cells [2]): ≤ 5 min
time to maximal impedance increase (RBL-2H3 mast cells [2]): ≤ 30 min
time at which extensive ruffling is apparent (RBL-2H3 mast cells [3]; printed as post IgE stimulation): 2.5 min
time of peak cytoskeletal reorganization (RBL-2H3 mast cells [3]; printed as post-IgE stimulation): 30 to 45 min
